Test results taken from US9526721B2, “Tetrahydroprotoberbine compounds and uses thereof in the treatment of neurological, psychiatric and neurodegenerative diseases” (priority 2012, dated 2016).
Entries after “also recorded” stand apart in the source; their conditions may differ.

How the values were obtained:
[1] = biological target: T1, D5 (Homo sapiens, UniProt P21918); assay: Receptor binding, dopamine D5; conditions: receptor expressed in CHO cells
T1 construct: host or cells: CHO cells
Description: All receptors tested were heterologously expressed CHO cells and IC50 values were determined by a non-linear, least squares regression analysis using MathIQ (ID Business Solution Ltd, UK).
All receptors were heterologously expressed CHO cells and IC50 values were determined by a non-linear, least squares regression analysis using MathIQ (ID Business Solution Ltd, UK).

[2] = biological target: T2, 5HT1A (Homo sapiens, UniProt P08908); assay: Receptor binding, 5HT1A; conditions: receptor expressed in CHO cells
T2 construct: host or cells: CHO cells
T2 sequence (P08908 1-422): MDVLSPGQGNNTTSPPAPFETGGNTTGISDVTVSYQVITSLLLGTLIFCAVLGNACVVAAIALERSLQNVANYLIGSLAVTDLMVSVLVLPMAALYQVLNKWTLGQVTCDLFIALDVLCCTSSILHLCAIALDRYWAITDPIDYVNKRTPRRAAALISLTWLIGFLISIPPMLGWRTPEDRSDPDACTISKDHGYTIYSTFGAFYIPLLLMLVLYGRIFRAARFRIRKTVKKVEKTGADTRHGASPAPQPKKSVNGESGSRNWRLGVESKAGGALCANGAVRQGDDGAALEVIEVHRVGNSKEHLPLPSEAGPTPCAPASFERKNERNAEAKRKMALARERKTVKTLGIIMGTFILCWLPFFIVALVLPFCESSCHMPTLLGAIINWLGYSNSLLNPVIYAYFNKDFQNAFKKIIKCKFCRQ
Description: (§1) All receptors tested were heterologously expressed CHO cells and IC50 values were determined by a non-linear, least squares regression analysis using MathIQ (ID Business Solution Ltd, UK). Ki was calculated using the equation of Cheng and Prusoff (1973, Biochem. Pharmacol 22:23099-3108) derived from the observed IC50 of the tested compound, the concentration of radioligand employed in the assay, and the historical values for the Kd of the ligand (obtained experimentally at MDS Pharma Services).
All receptors were heterologously expressed CHO cells and IC50 values were determined by a non-linear, least squares regression analysis using MathIQ (ID Business Solution Ltd, UK). K1 was calculated (Y. Cheng & Prusoff 1973) from the observed IC50 of the tested compound, the concentration of radioligand employed in the assay, and the historical values for the Kd of the ligand (obtained experimentally at MDS Pharma Services).

[3] = system: rats; assay: Latent inhibition; assay type: in vivo, rat; conditions: treatment before each pre-exposure; 1.0 mg/kg d-AMPH before conditioning
Description: Sensitization: Animals were removed from the colony and taken to a holding room where they received either IP d-AMPH or saline every Monday, Wednesday, and Friday. Doses started at 1 mg/kg and increased 1 mg/kg each week over 5 weeks to 5 mg/kg. 25 days after the induction phase, behavioral sensitization was assessed over 3 days in locomotor chambers (plexiglass box, 40 cm×40 cm×40 cm) where speed and distance traveled were recorded using Noldus Ethovision XT (Noldus, Leesburg, Va.). The first day consisted of a 2 hr acclimation session, and prior to counter balanced injections of either 0.5 mg/kg d-AMPH or saline on days 2 and 3 animals were acclimated for 1 hr. Experiments were run in two separate cohorts of 30 animals to minimize the time between testing sensitization and LI.
Latent Inhibition: LI tests were performed in rats treated with 1.0 mg/kg acute d-AMPH, sensitized rats, and drug-naive rats. LI testing began 5 days post-challenge of the escalating dose regime. Animals in both conditions (chronic saline or sensitized) were randomly assigned to either non-pre-exposed (NPE) or pre-exposed (PE) groups. Testing took place over 3 consecutive days. […] Animals in the PE group received 50 presentations of the CS (10 sec duration) per day at a variable interval for the first two days. Animals in the NPE group were placed in the chamber for an equal time as the PE animals. Conditioning (COND) consisted of 100 CS-US pairings. Latency to cross into the other compartment and the number of total beam breaks were recorded. Drug-naïve animals receiving acute 1.0 mg/kg AMPH were injected IP 45 min before the COND trial.
The effects of the two individual enantiomers of govadine on latent inhibition (LI) were also tested as described in Example 12.

[4] = biological target: T3, D4.2 (Homo sapiens, UniProt P21917, DEL265-296); assay: Receptor binding, dopamine D4.2; conditions: CHO cells
T3 construct: host or cells: CHO cells
T3 sequence (P21917 with tags, fused parts or gaps DEL265-296): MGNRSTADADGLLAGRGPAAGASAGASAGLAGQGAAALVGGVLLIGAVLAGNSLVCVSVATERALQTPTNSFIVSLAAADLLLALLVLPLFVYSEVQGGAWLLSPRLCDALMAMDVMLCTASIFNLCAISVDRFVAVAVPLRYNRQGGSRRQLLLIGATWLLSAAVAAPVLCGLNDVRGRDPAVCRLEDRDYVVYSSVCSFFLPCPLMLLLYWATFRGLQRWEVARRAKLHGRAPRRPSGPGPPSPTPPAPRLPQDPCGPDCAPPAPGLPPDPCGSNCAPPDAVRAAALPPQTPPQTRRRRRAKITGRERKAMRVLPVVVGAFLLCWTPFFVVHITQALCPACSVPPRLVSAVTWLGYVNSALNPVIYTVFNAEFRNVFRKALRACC
Description: as §1

[5] = system: rats; assay: Temporal order recognition (radial arm maze); conditions: for Arm Entries / Distance Travelled: 1.0 mg/kg govadine isomers, 5.0 mg/kg clozapine; for temporal order effect: injected 15 min before test trial
Description: The task exploits a rat's natural preference for novel locations. Each animal received 3 separate trials where access to two arms of an eight arm radial arm maze was granted. During the first trial, two arms were selected at random for exploration, and animals were allowed to explore these arms for 2 min After this time, they were taken off the maze and returned to their home cage. 1 hour later they were placed back on the maze and two new arms were randomly selected for 2 min of exploration.
Time spent in each arm (recent and old) was recorded as well as total distance traveled and the total number of arm entries in Noldus EthoVision 3.1 (Leesburg, Va.).

[6] = system: midbrain dopamine (DA) neurons; assay: Firing of midbrain dopamine neurons in slices (cell-attached recording); assay type: cell-based, Sprague Dawley rats; conditions: co-application with Quinpirole (500 nM)
Description: Horizontal midbrain slices (220 μm) were prepared from male Sprague Dawley rats (3-4 weeks old). Cell-attached voltage-clamp recordings were used to examine tonic firing rate of DA neurons at 31-32° C. using patch pipette and bathing solutions consisting of physiological saline. Putative DA neurons were identified by spontaneous pacemaker firing (1-3 Hz) with broad APs (≧2.0 ms). Identified cells not responsive to Quinpirole (500 nM), a D2 DA receptor agonist, were excluded from further recording. Cells were also filled with biocytin or Alexa for posthoc-identification using TH immunostaining.

[7] = system: rats; assay: Conditioned avoidance responding (CAR); conditions: SC, 100 CS-US pairings
Description: Conditioned avoidance responding (CAR) was performed in a two-way avoidance procedure with drug naive rats in four shuttle boxes (Med Associates, Vt., USA) each consisting of two compartments separated by an open door. Each compartment contained a wall-mounted speaker, house light and 5 photocells to detect the location of the animal. All experimental protocols and data acquisition were controlled by custom programs written in MED-PC.
Before training, each animal received two acclimation sessions lasting 30 min with only the house light illuminated. […] Pairings of the conditioned stimulus (CS) (white noise, ˜60 dB) and the unconditioned stimulus (US) (footshock, 0.75 mA) were presented at random intervals with a mean of 60 sec. The CS was presented for 10 sec. During this time, if the animal moved to the opposite side of the box, the white noise was silenced, no foot shock delivered, and an avoidance response was scored. Upon termination of the 10 sec tone, if the animal had not moved to the opposite side of the box, a foot-shock was administered for 2 sec. […] Failure to avoid or escape constituted a response failure and was scored accordingly. After reaching a criterion of 90% avoidances for a block of 20 trials, usually achieved with ˜100 CS-US pairings, each animal advanced to the drug-testing phase. Animals not meeting the criterion by 120 pairings were excluded from the study.
Pairings were presented just as during training and were scored in the same fashion. The test trial consisted of 100 CS-US pairings.

T1 sequence (P21918 whole entry): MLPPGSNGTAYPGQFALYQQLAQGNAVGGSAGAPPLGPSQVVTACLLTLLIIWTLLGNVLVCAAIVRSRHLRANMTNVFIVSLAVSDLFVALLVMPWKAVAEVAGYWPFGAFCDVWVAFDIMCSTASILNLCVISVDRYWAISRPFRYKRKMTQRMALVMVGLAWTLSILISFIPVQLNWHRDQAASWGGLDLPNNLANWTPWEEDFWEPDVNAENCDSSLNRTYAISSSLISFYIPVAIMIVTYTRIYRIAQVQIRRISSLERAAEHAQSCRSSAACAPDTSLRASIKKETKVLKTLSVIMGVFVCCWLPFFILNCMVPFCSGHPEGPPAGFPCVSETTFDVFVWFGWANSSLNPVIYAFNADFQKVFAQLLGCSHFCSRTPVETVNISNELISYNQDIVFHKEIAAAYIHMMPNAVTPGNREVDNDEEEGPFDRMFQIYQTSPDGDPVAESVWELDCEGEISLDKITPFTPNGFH

Row | SMILES | Ki [1] | Ki [2] | latent inhibition in acute d-AMPH-treated animals [3] | inhibition at 10 µM [4] | Arm Entries ([5]; 45 min. delay) | Distance Travelled ([5]; 45 min. delay) | temporal order effect ([5]; 45 min delay) | temporal order effect ([5]; 4 hr delay) | Arm Entries ([5]; 4 hr. delay) | Distance Travelled ([5]; 4 hr. delay) | antagonism of D2 autoreceptor-mediated decrease in tonic firing [6] | suppression of conditioned avoidance responding (avoidances) [7]
1 | COc1cc2c(cc1O)CN1CCc3cc(OC)c(O)cc3[C@H]1C2 [d-govadine] | 0.0134 µM | 18.2 µM | restored LI | 20% | 14.8 ± 1.9 | 2433 ± 363 | abolished | restored temporal order recognition | 11 ± 1.1 | 2091 ± 114 | – | –
2 | COc1cc2c(cc1O)CN1CCc3cc(OC)c(O)cc3[C@@H]1C2 [l-govadine] | – | 15.2 µM | restored LI | 21% | 3.67 ± 1.9 | 587.7 ± 109 | abolished | no temporal order effect | 3.5 ± 0.9 | 824 ± 135 | antagonized | Suppression of conditioned avoidance responding was observed; also recorded: suppresses CAR
